Measurements as given in publication PMC3108148 (Journal of medicinal chemistry, 2011).

Key:
XIAP linker-BIR2-BIR3 [1] = biological target: T1, XIAP linker-BIR2-BIR3 (Homo sapiens, UniProt P98170); experiment: Cell-free caspase-3/7 functional assay; settings: compound 60 μM; XIAP linker-BIR2-BIR3 20 nM
MDA-MB-231 xenograft [2] = settings: 5 mg/kg, mice; cited from earlier work
[3] = test system: PARP cleavage and caspase-3 processing in MDA-MB-231 cells; experiment: Western blot analysis of PARP cleavage and caspase-3 processing; format: cell-based, human; settings: 24 h; for concentration causing PARP cleavage / concentration causing caspase-3 processing: MDA-MB-231, Western blot; for caspase-3 processing and PARP cleavage: 30 nM, MDA-MB-231
[4] = biological target: XIAP L-BIR2-BIR3 (residues 120–356) (Homo sapiens, UniProt P98170); settings: relative to 15; cited from earlier work
[5] = biological target: cIAP1 in MDA-MB-231 cells (Homo sapiens, UniProt Q13490); settings: 24 h, MDA-MB-231, Western blot
[6] = test system: subset of human cancer cell lines; settings: cited from earlier work
[7] = biological target: cIAP-1 BIR3 (residues 253–363) (Homo sapiens, UniProt Q13490); settings: relative to 15; cited from earlier work
[8] = biological target: cIAP-2 BIR3 (residues 238–349) (Homo sapiens, UniProt Q13489); settings: relative to 15; cited from earlier work
XIAP linker-BIR2-BIR3 [9] = biological target: T1, XIAP linker-BIR2-BIR3; experiment: Cell-free caspase-9 functional assay; format: biochemical; settings: compound as high as 100 μM; XIAP 500 nM
MDA-MB-231 xenograft [10] = settings: SCID mice; 27 at 1 or 5 mg/kg i.v.; Taxotere […] i.v. days 2 and 9
Solubility = format: physicochemical

In the case of `CN[C@@H](C)C(=O)N[C@H]1CCCC[C@H]2CC[C@@H](C(=O)NC(c3ccccc3)c3ccccc3)N2C1=O` [Compound 15], the caspase-3/7 activity restored (XIAP linker-BIR2-BIR3 [1]) is reported as 40%.

In the case of `CN[C@@H](C)C(=O)N[C@H]1CCCC[C@H]2CC[C@@H](C(=O)N[C@@H](c3ccccc3)c3cn(CCCCc4ccc(CCCCn5cc([C@@H](NC(=O)[C@@H]6CC[C@@H]7CCCC[C@H](NC(=O)[C@H](C)NC)C(=O)N76)c6ccccc6)nn5)cc4)nn3)N2C1=O` [Compound 16], the “antitumor effect in MDA-MB-231 xenograft model” value (MDA-MB-231 xenograft [2]) is listed as “tumor regression”, the “concentration causing PARP cleavage” value [3] is listed as 3 nM and the “concentration causing caspase-3 processing” value [3] is listed as 3 nM. The “times more potent than 15 in binding to XIAP containing both BIR2 and BIR3 domains” value [4] was > 100 times, the “concentration inducing clear/robust cIAP1 degradation” value [5] was 1 nM and the “concentrations effectively inducing apoptosis and inhibiting cell growth (as low as)” value [6] was 1 to 10 nM. For the same molecule, the “times more potent than 15 in inducing apoptosis and inhibiting cell growth” value [6] was 100 times, the “times more potent than 15 in binding to cIAP1 BIR3 protein” value [7] was 10 times and the “times more potent than 15 in binding to cIAP2 BIR3 protein” value [8] was 10 times.

For `CC(=O)N[C@@H](Cc1c[nH]c2ccccc12)C(=O)N[C@H]1CCCC[C@H]2CC[C@@H](C(=O)N[C@@H](c3ccccc3)c3cn(CCCCc4ccc(CCCCn5cc([C@@H](NC(=O)[C@@H]6CC[C@@H]7CCCC[C@H](NC(=O)[C@H](Cc8c[nH]c9ccccc89)NC(C)=O)C(=O)N76)c6ccccc6)nn5)cc4)nn3)N2C1=O` [Compound 17], the “restoration of caspase-9 activity” value (XIAP linker-BIR2-BIR3 [9]) was “fails to restore any caspase-9 activity”.

With `CN[C@@H](C)C(=O)N[C@H]1CCCC[C@H]2CC[C@@H](C(=O)N[C@@H](c3ccccc3)c3cn(Cc4ccc(Cn5cc([C@@H](NC(=O)[C@@H]6CC[C@@H]7CCCC[C@H](NC(=O)[C@H](C)NC)C(=O)N76)c6ccccc6)nn5)cc4)nn3)N2C1=O` [Compound 18, (S,3S,3′S,6S,6′S,10aS,10a′S)-N,N′-((1S,1′S)-(1,1′-(1,4-phenylenebis(methylene))bis(1H-1,2,3-triazole-4,1-diyl))bis(phenylmethylene))bis(6-((S)-2-(methylamino)propanamido)-5-oxodecahydropyrrolo[1,2-a]azocine-3-carboxamide)] the “caspase-3 processing and PARP cleavage” value [3] was “fail to induce caspase-3 processing and PARP cleavage”.

For `CN[C@@H](C)C(=O)N[C@H]1CCCC[C@H]2CC[C@@H](C(=O)N[C@@H](c3ccccc3)c3cn(CCc4ccc(CCn5cc([C@@H](NC(=O)[C@@H]6CC[C@@H]7CCCC[C@H](NC(=O)[C@H](C)NC)C(=O)N76)c6ccccc6)nn5)cc4)nn3)N2C1=O` [Compound 19, (S,3S,3′S,6S,6′S,10aS,10a′S)-N,N′-((1S,1′S)-(1,1′-(1,4-phenylenebis(ethane-2,1-diyl))bis(1H-1,2,3-triazole-4,1-diyl))bis(phenylmethylene))bis(6-((S)-2-(methylamino)propanamido)-5-oxodecahydropyrrolo[1,2-a]azocine-3-carboxamide)], the “caspase-3 processing and PARP cleavage” value [3] was “fail to induce caspase-3 processing and PARP cleavage”.

In the case of `CN[C@@H](C)C(=O)N[C@H]1CCCC[C@H]2CC[C@@H](C(=O)N[C@@H](c3ccccc3)c3cn(CCCc4ccc(CCCn5cc([C@@H](NC(=O)[C@@H]6CC[C@@H]7CCCC[C@H](NC(=O)[C@H](C)NC)C(=O)N76)c6ccccc6)nn5)cc4)nn3)N2C1=O` [Compound 20, (S,3S,3′S,6S,6′S,10aS,10a′S)-N,N′-((1S,1′S)-(1,1′-(1,4-phenylenebis(propane-3,1-diyl))bis(1H-1,2,3-triazole-4,1-diyl))bis(phenylmethylene))bis(6-((S)-2-(methylamino)propanamido)-5-oxodecahydropyrrolo[1,2-a]azocine-3-carboxamide)], the “concentration causing PARP cleavage” value [3] is reported as 3 nM and the “concentration causing caspase-3 processing” value [3] is reported as 10 nM.

For `CN[C@@H](C)C(=O)N[C@H]1CCCC[C@H]2CC[C@@H](C(=O)N[C@@H](c3ccccc3)c3cn(CCCCCCc4ccc(CCCCCCn5cc([C@@H](NC(=O)[C@@H]6CC[C@@H]7CCCC[C@H](NC(=O)[C@H](C)NC)C(=O)N76)c6ccccc6)nn5)cc4)nn3)N2C1=O` [Compound 21, (S,3S,3′S,6S,6′S,10aS,10a′S)-N,N′-((1S,1′S)-(1,1′-(1,4-phenylenebis(hexane-6,1-diyl))bis(1H-1,2,3-triazole-4,1-diyl))bis(phenylmethylene))bis(6-((S)-2-(methylamino)propanamido)-5-oxodecahydropyrrolo[1,2-a]azocine-3-carboxamide)], the “concentration causing PARP cleavage” value [3] was 3 nM and the “concentration causing caspase-3 processing” value [3] was 3 nM.

In the case of `CN[C@@H](C)C(=O)N[C@H]1CCCC[C@H]2CC[C@@H](C(=O)N[C@@H](c3ccccc3)c3cn(CCCCCOCCCCCn4cc([C@@H](NC(=O)[C@@H]5CC[C@@H]6CCCC[C@H](NC(=O)[C@H](C)NC)C(=O)N65)c5ccccc5)nn4)nn3)N2C1=O` [Compound 27, (S,3S,3′S,6S,6′S,10aS,10a′S)-N,N′-((1S,1′S)-(1,1′-(oxybis(pentane-5,1-diyl))bis(1H-1,2,3-triazole-4,1-diyl))bis(phenylmethylene))bis(6-((S)-2-(methylamino)propanamido)-5-oxodecahydropyrrolo[1,2-a]azocine-3-carboxamide)], the “weight loss / signs of toxicity” value (MDA-MB-231 xenograft [10]) is reported as “no signs of toxicity” and the solubility (Solubility) is reported as “excellent solubility”.
